In publication PMC6001238, “Iterative Chemical Engineering of Vancomycin Leads to Novel Vancomycin Analogs With a High in Vitro Therapeutic Index” (Frontiers in Microbiology, 2018):
In brackets after ≈: the same amount, converted by molar mass.

Legend:
MRSA KS2 = assay: MIC, broth microdilution, MRSA KS2; type: cell-based, Staphylococcus aureus; conditions: for MIC-fold improvement vs. vancomycin: MRSA KS2, ratio of MIC of vancomycin and MIC of analogue; for MIC: Staphylococcus aureus MRSA KS2, read-out: MIC
Procedure, shortened: (§1)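 MIC values come from broth microdilution run to CLSI susceptibility-testing standards. Ultrapure water and uninoculated broth served as controls. In one series, vancomycin at a final 10 μM was co-dosed with the analogue or comparator antibiotic.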

MRSA KS89 = assay: MIC, broth microdilution, MRSA KS89; type: cell-based, Staphylococcus aureus; conditions: for MIC-fold improvement vs. vancomycin: MRSA KS8, ratio of MIC of vancomycin and MIC of analogue; for MIC: Staphylococcus aureus MRSA KS8, read-out: MIC
Procedure, shortened: as §1

E. faecalis VRE 6 = assay: MIC, broth microdilution, vancomycin-resistant E. faecalis VRE 6 (VanA); type: cell-based, Enterococcus faecalis; conditions: for MIC: Enterococcus faecalis VRE 6 (vancomycin-resistant), read-out: MIC; for MIC-fold improvement vs. vancomycin: VRE 6, ratio of MIC of vancomycin and MIC of analogue
Procedure, shortened: as §1

E. faecalis VRE 53 = assay: MIC, broth microdilution, vancomycin-resistant E. faecalis VRE 53 (VanA); type: cell-based, Enterococcus faecalis; conditions: for MIC: Enterococcus faecalis VRE 53 (vancomycin-resistant), read-out: MIC; for MIC-fold improvement vs. vancomycin: VRE 53, ratio of MIC of vancomycin and MIC of analogue
Procedure, shortened: as §1

S. aureus VRSA = assay: MIC, broth microdilution, vancomycin-resistant S. aureus (VRSA); type: cell-based, Staphylococcus aureus; conditions: for MIC: Staphylococcus aureus VRSA, read-out: MIC; for MIC-fold improvement vs. vancomycin: VRSA, ratio of MIC of vancomycin and MIC of analogue
Procedure, shortened: as §1

E. faecalis VSE 1 = assay: MIC, broth microdilution, vancomycin-sensitive E. faecalis (VSE 1); type: cell-based, Enterococcus faecalis; conditions: for MIC: Enterococcus faecalis VSE 1 (vancomycin-sensitive), read-out: MIC; for MIC-fold improvement vs. vancomycin: VSE 1, ratio of MIC of vancomycin and MIC of analogue
Procedure, shortened: as §1

[1] = tested on: L1210, CEM and HeLa cell lines; assay: Cytostatic activity, average or summary over L1210, CEM and HeLa; type: cell-based; conditions: average of L1210, CEM and HeLa; read-out: Toxicity (IC50) Average
Procedure, shortened: (§2)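 Test compounds, serially diluted, received an equal volume of cell suspension at 300,000–500,000 cells/mL. After 37°C incubation (2 days for L1210, 3 for CEM, 4 for HeLa), cells were enumerated by Coulter counting and 50%-inhibitory concentrations calculated per cell type.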

MRSA KS1 = assay: MIC, broth microdilution, MRSA KS1; type: cell-based, Staphylococcus aureus; conditions: for MIC-fold improvement vs. vancomycin: MRSA KS1, ratio of MIC of vancomycin and MIC of analogue; for MIC: Staphylococcus aureus MRSA KS1, read-out: MIC
Procedure, shortened: as §1

E. faecalis VRE 29 = assay: MIC, broth microdilution, vancomycin-resistant E. faecalis VRE 29 (VanA); type: cell-based, Enterococcus faecalis; conditions: for MIC: Enterococcus faecalis VRE 29 (vancomycin-resistant), read-out: MIC; for MIC-fold improvement vs. vancomycin: VRE 29, ratio of MIC of vancomycin and MIC of analogue
Procedure, shortened: as §1

S. aureus VISA/HIP5827 = assay: MIC, broth microdilution, vancomycin-intermediate S. aureus VISA HIP5827; type: cell-based, Staphylococcus aureus; conditions: for MIC: Staphylococcus aureus VISA/HIP5827, read-out: MIC; for MIC-fold improvement vs. vancomycin: VISA/HIP5827, ratio of MIC of vancomycin and MIC of analogue
Procedure, shortened: as §1

[2] = tested on: human T-lymphocyte (CEM) cells; assay: Cytostatic activity, CEM cell proliferation; type: cell-based; conditions: mean ± SD of three experiments; highest concentration tested 250 µM; 3 days; read-out: Toxicity (IC50) CEM
Procedure, shortened: as §2

[3] = tested on: S. aureus VSSA (ATCC 6538); assay: MIC, broth microdilution, vancomycin-sensitive S. aureus (VSSA/MSSA, ATCC 6538); type: cell-based, Staphylococcus aureus; conditions: for MIC: Staphylococcus aureus VSSA, read-out: MIC; for MIC-fold improvement vs. vancomycin: VSSA, ratio of MIC of vancomycin and MIC of analogue
Procedure, shortened: as §1

[4] = tested on: human cervix carcinoma (HeLa) cells; assay: Cytostatic activity, HeLa cell proliferation; type: cell-based; conditions: mean ± SD of three experiments; highest concentration tested 250 µM; 4 days; read-out: Toxicity (IC50) HeLa
Procedure, shortened: as §2

E. faecalis VRE 37 = assay: MIC, broth microdilution, vancomycin-resistant E. faecalis VRE 37 (VanA); type: cell-based, Enterococcus faecalis; conditions: for MIC: Enterococcus faecalis VRE 37 (vancomycin-resistant), read-out: MIC; for MIC-fold improvement vs. vancomycin: VRE 37, ratio of MIC of vancomycin and MIC of analogue
Procedure, shortened: as §1

MRSA KS6 = assay: MIC, broth microdilution, MRSA KS6; type: cell-based, Staphylococcus aureus; conditions: for MIC-fold improvement vs. vancomycin: MRSA KS6, ratio of MIC of vancomycin and MIC of analogue; for MIC: Staphylococcus aureus MRSA KS6, read-out: MIC
Procedure, shortened: as §1

[5] = tested on: Murine leukemia (L1210) cells; assay: Cytostatic activity, L1210 cell proliferation; type: cell-based; conditions: mean ± SD of three experiments; highest concentration tested 250 µM; 2 days; read-out: Toxicity (IC50) L1210
Procedure, shortened: as §2

Structure (SMILES) | MIC-fold improvement vs. vancomycin (MRSA KS2) | MIC (MRSA KS2) [µM] | MIC-fold improvement vs. vancomycin (MRSA KS89) | MIC (MRSA KS89) [µM] | MIC (E. faecalis VRE 6) [µM] | MIC-fold improvement vs. vancomycin (E. faecalis VRE 6) | MIC (E. faecalis VRE 53) [µM] | MIC-fold improvement vs. vancomycin (E. faecalis VRE 53) | MIC-fold improvement vs. vancomycin (S. aureus VRSA) | MIC (E. faecalis VSE 1) [µM] | MIC-fold improvement vs. vancomycin (E. faecalis VSE 1) | IC50 [1] [µM] | MIC-fold improvement vs. vancomycin (MRSA KS1) | MIC (MRSA KS1) [µM] | MIC (E. faecalis VRE 29) [µM] | MIC-fold improvement vs. vancomycin (E. faecalis VRE 29) | MIC (S. aureus VISA/HIP5827) [µM] | MIC-fold improvement vs. vancomycin (S. aureus VISA/HIP5827) | IC50 [2] [µM] | MIC [3] [µM] | also measured
CN[C@H](CC(C)C)C(=O)N[C@H]1C(=O)N[C@@H](CC(N)=O)C(=O)N[C@H]2C(=O)N[C@H]3C(=O)N[C@H](C(=O)N[C@H](C(=O)NCC(=O)Nc4cc(C)ccc4O)c4cc(O)cc(O)c4-c4cc3ccc4O)[C@H](O)c3ccc(c(Cl)c3)Oc3cc2cc(c3O[C@@H]2O[C@H](CO)[C@@H](O)[C@H](O)[C@H]2O[C@H]2C[C@](C)(N)[C@H](O)[C@H](C)O2)Oc2ccc(cc2Cl)[C@H]1O [Vanc-18] | 2 | 0.39 (≈ 0.628 µg/mL) | 1 | 0.78 (≈ 1.26 µg/mL) | 12.5 (≈ 20.1 µg/mL) | 16 | 25 (≈ 40.3 µg/mL) | 16 | 4 | 1.56 (≈ 2.51 µg/mL) | 1 | > 250 | 1 | 0.78 (≈ 1.26 µg/mL) | 25 (≈ 40.3 µg/mL) | 16 | 0.78 (≈ 1.26 µg/mL) | 8 | > 250 | 0.78 (≈ 1.26 µg/mL) | MIC (S. aureus VRSA): 25 µM (≈ 40.3 µg/mL); MIC-fold improvement vs. vancomycin [3]: 1; IC50 [4]: > 250 µM; MIC (E. faecalis VRE 37): 50 µM (≈ 80.6 µg/mL); MIC-fold improvement vs. vancomycin (E. faecalis VRE 37): 8; MIC-fold improvement vs. vancomycin (MRSA KS6): 1; MIC (MRSA KS6): 0.78 µM (≈ 1.26 µg/mL); IC50 [5]: > 250 µM
CCc1cccc(C)c1NC(=O)CNC(=O)C1NC(=O)C2NC(=O)C(NC(=O)C3NC(=O)C(CC(N)=O)NC(=O)C(NC(=O)C(CC(C)C)NC)C(O)c4ccc(c(Cl)c4)Oc4cc3cc(c4OC3OC(CO)C(O)C(O)C3OC3CC(C)(N)C(O)C(C)O3)Oc3ccc(cc3Cl)C2O)c2ccc(O)c(c2)-c2c(O)cc(O)cc21 (centres unmarked) [Vanc-19] | 1 | 0.78 (≈ 1.27 µg/mL) | 1 | 0.78 (≈ 1.27 µg/mL) | 3.13 (≈ 5.08 µg/mL) | 64 | 25 (≈ 40.6 µg/mL) | 16 | 8 | 1.56 (≈ 2.53 µg/mL) | 1 | 188 | 1 | 0.78 (≈ 1.27 µg/mL) | 12.5 (≈ 20.3 µg/mL) | 32 | 3.13 (≈ 5.08 µg/mL) | 2 | > 250 | 0.78 (≈ 1.27 µg/mL) | MIC (S. aureus VRSA): 12.5 µM (≈ 20.3 µg/mL); MIC-fold improvement vs. vancomycin [3]: 1; IC50 [4]: 63 ± 5 µM; MIC (E. faecalis VRE 37): 25 µM (≈ 40.6 µg/mL); MIC-fold improvement vs. vancomycin (E. faecalis VRE 37): 16; MIC-fold improvement vs. vancomycin (MRSA KS6): 0.5; MIC (MRSA KS6): 1.56 µM (≈ 2.53 µg/mL); IC50 [5]: > 250 µM
CN[C@H](CC(C)C)C(=O)N[C@H]1C(=O)N[C@@H](CC(N)=O)C(=O)N[C@H]2C(=O)N[C@H]3C(=O)N[C@H](C(=O)N[C@H](C(=O)NCCNC(=O)/C=C/c4ccc(Cl)cc4)c4cc(O)cc(O)c4-c4cc3ccc4O)[C@H](O)c3ccc(c(Cl)c3)Oc3cc2cc(c3O[C@@H]2O[C@H](CO)[C@@H](O)[C@H](O)[C@H]2O[C@H]2C[C@](C)(N)[C@H](O)[C@H](C)O2)Oc2ccc(cc2Cl)[C@H]1O [Vanc-20] | 4 | 0.20 (≈ 0.331 µg/mL) | 2 | 0.39 (≈ 0.646 µg/mL) | 1.56 (≈ 2.58 µg/mL) | 128 | 12.5 (≈ 20.7 µg/mL) | 32 | 32 | 0.39 (≈ 0.646 µg/mL) | 4 | 121 | 2 | 0.39 (≈ 0.646 µg/mL) | 6.25 (≈ 10.3 µg/mL) | 64 | 0.39 (≈ 0.646 µg/mL) | 16 | 146 ± 24 | 0.39 (≈ 0.646 µg/mL) | MIC (S. aureus VRSA): 3.13 µM (≈ 5.18 µg/mL); MIC-fold improvement vs. vancomycin [3]: 2; IC50 [4]: 80 ± 3 µM; MIC (E. faecalis VRE 37): 12.5 µM (≈ 20.7 µg/mL); MIC-fold improvement vs. vancomycin (MRSA KS6): 2; MIC (MRSA KS6): 0.39 µM (≈ 0.646 µg/mL); IC50 [5]: 138 ± 5 µM
CN[C@H](CC(C)C)C(=O)N[C@H]1C(=O)N[C@@H](CC(N)=O)C(=O)N[C@H]2C(=O)N[C@H]3C(=O)N[C@H](C(=O)N[C@H](C(=O)NCCNC(=O)/C=C/c4cccc(OC)c4)c4cc(O)cc(O)c4-c4cc3ccc4O)[C@H](O)c3ccc(c(Cl)c3)Oc3cc2cc(c3O[C@@H]2O[C@H](CO)[C@@H](O)[C@H](O)[C@H]2O[C@H]2C[C@](C)(N)[C@H](O)[C@H](C)O2)Oc2ccc(cc2Cl)[C@H]1O [Vanc-23] | 2 | 0.39 (≈ 0.644 µg/mL) | 1 | 0.78 (≈ 1.29 µg/mL) | 3.13 (≈ 5.17 µg/mL) | 64 | 25 (≈ 41.3 µg/mL) | 16 | 16 | 0.39 (≈ 0.644 µg/mL) | 4 | > 250 | 1 | 0.78 (≈ 1.29 µg/mL) | 12.5 (≈ 20.6 µg/mL) | 32 | 0.78 (≈ 1.29 µg/mL) | 8 | > 250 | 0.39 (≈ 0.644 µg/mL) | MIC (S. aureus VRSA): 6.25 µM (≈ 10.3 µg/mL); MIC-fold improvement vs. vancomycin [3]: 2; IC50 [4]: > 250 µM; MIC (E. faecalis VRE 37): 25 µM (≈ 41.3 µg/mL); MIC-fold improvement vs. vancomycin (E. faecalis VRE 37): 16; MIC-fold improvement vs. vancomycin (MRSA KS6): 1; MIC (MRSA KS6): 0.78 µM (≈ 1.29 µg/mL); IC50 [5]: > 250 µM
CNC(CC(C)C)C(=O)NC1C(=O)NC(CC(N)=O)C(=O)NC2C(=O)NC3C(=O)NC(C(=O)NC(C(=O)NCCCNC(=O)c4cc5ccccc5s4)c4cc(O)cc(O)c4-c4cc3ccc4O)C(O)c3ccc(c(Cl)c3)Oc3cc2cc(c3OC2OC(CO)C(O)C(O)C2OC2CC(C)(N)C(O)C(C)O2)Oc2ccc(cc2Cl)C1O (centres unmarked) [Vanc-26] | 2 | 0.39 (≈ 0.65 µg/mL) | 2 | 0.39 (≈ 0.65 µg/mL) | 3.13 (≈ 5.21 µg/mL) | 64 | 25 (≈ 41.6 µg/mL) | 16 | 32 | 0.20 (≈ 0.333 µg/mL) | 8 | 181 | 2 | 0.39 (≈ 0.65 µg/mL) | 6.25 (≈ 10.4 µg/mL) | 64 | 0.39 (≈ 0.65 µg/mL) | 16 | > 250 | 0.39 (≈ 0.65 µg/mL) | MIC-fold improvement vs. vancomycin [3]: 2; IC50 [4]: 42 ± 23 µM; MIC (E. faecalis VRE 37): 12.5 µM (≈ 20.8 µg/mL); MIC-fold improvement vs. vancomycin (MRSA KS6): 2; MIC (MRSA KS6): 0.39 µM (≈ 0.65 µg/mL); IC50 [5]: > 250 µM
